Experimental data: patent US4915931A, “Tc-99m mononuclide complex compound” (Nihon Medi-Physics Co., Ltd., priority 1988, dated 1990)
Read-outs that look alike come from different tables or passages of the source.

Legend:
[1] = type: in vivo; settings: mouse
Description: The ^99m Tc-PETS solution as obtained in Example 1 was injected into mice through the tail vein in an amount of 0.1 ml/animal. The mice were sacrificed at pre-determined times after the injection. The radioactivities and weights of various organs and blood taken from the sacrificed mice were measured, and the remaining percentages per gram of each organ were determined. The results are shown in Table 1 wherein the relative ratio of each organ to blood was also shown therein.

[2] = 7 minutes from the administration

Tc-99m-labeled pentane-2,4-dione-bis(N-methylthiosemicarbazone) complex compound [^99m Tc-PETS]
distribution ratio brain/blood [1, 2]: 1.67 ratio (unitless) | distribution ratio heart/blood [1, 2]: 2.16 ratio (unitless) | distribution ratio pancreas/blood [1, 2]: 2.66 ratio (unitless) | distribution to brain, heart and pancreas after administration ([1]; i.v. tail vein): rapidly distributed to brain, heart and pancreas | Body distribution, Blood ([1]; i.v. tail vein, 0.5 min): 4.31 %/g organ | Body distribution, Brain ([1]; i.v. tail vein, 0.5 min): 4.68 %/g organ | Body distribution, Heart ([1]; i.v. tail vein, 0.5 min): 15.60 %/g organ | Body distribution, Intestine ([1]; i.v. tail vein, 0.5 min): 2.60 %/g organ | Body distribution, Kidney ([1]; i.v. tail vein, 0.5 min): 15.30 %/g organ | Body distribution, Liver ([1]; i.v. tail vein, 0.5 min): 4.83 %/g organ | Body distribution, Lung ([1]; i.v. tail vein, 0.5 min): 11.80 %/g organ | Body distribution, Pancreas ([1]; i.v. tail vein, 0.5 min): 7.11 %/g organ | Body distribution, Spleen ([1]; i.v. tail vein, 0.5 min): 2.20 %/g organ | Body distribution, Stomach ([1]; i.v. tail vein, 0.5 min): 1.95 %/g organ | Brain/blood ratio ([1]; i.v. tail vein, 0.5 min): 1.09 | Pancreas/blood ratio ([1]; i.v. tail vein, 0.5 min): 1.60 | heart/blood ratio ([1]; i.v. tail vein, 0.5 min): 3.52 | Body distribution, Blood ([1]; i.v. tail vein, 2 min): 3.21 %/g organ | Body distribution, Brain ([1]; i.v. tail vein, 2 min): 4.16 %/g organ | Body distribution, Heart ([1]; i.v. tail vein, 2 min): 6.31 %/g organ | Body distribution, Intestine ([1]; i.v. tail vein, 2 min): 3.17 %/g organ | Body distribution, Kidney ([1]; i.v. tail vein, 2 min): 10.90 %/g organ | Body distribution, Liver ([1]; i.v. tail vein, 2 min): 11.70 %/g organ | Body distribution, Lung ([1]; i.v. tail vein, 2 min): 8.18 %/g organ | Body distribution, Pancreas ([1]; i.v. tail vein, 2 min): 7.32 %/g organ | Body distribution, Spleen ([1]; i.v. tail vein, 2 min): 3.24 %/g organ | Body distribution, Stomach ([1]; i.v. tail vein, 2 min): 2.66 %/g organ | Brain/blood ratio ([1]; i.v. tail vein, 2 min): 1.30 | Pancreas/blood ratio ([1]; i.v. tail vein, 2 min): 2.29 | heart/blood ratio ([1]; i.v. tail vein, 2 min): 2.17 | Body distribution, Blood ([1]; i.v. tail vein, 5 min): 2.34 %/g organ | Body distribution, Brain ([1]; i.v. tail vein, 5 min): 2.93 %/g organ | Body distribution, Heart ([1]; i.v. tail vein, 5 min): 4.08 %/g organ | Body distribution, Intestine ([1]; i.v. tail vein, 5 min): 3.65 %/g organ | Body distribution, Kidney ([1]; i.v. tail vein, 5 min): 6.20 %/g organ | Body distribution, Liver ([1]; i.v. tail vein, 5 min): 20.10 %/g organ | Body distribution, Lung ([1]; i.v. tail vein, 5 min): 3.95 %/g organ | Body distribution, Pancreas ([1]; i.v. tail vein, 5 min): 4.30 %/g organ | Body distribution, Spleen ([1]; i.v. tail vein, 5 min): 3.72 %/g organ | Body distribution, Stomach ([1]; i.v. tail vein, 5 min): 1.97 %/g organ | Brain/blood ratio ([1]; i.v. tail vein, 5 min): 1.37 | Pancreas/blood ratio ([1]; i.v. tail vein, 5 min): 1.86 | heart/blood ratio ([1]; i.v. tail vein, 5 min): 1.88 | Body distribution, Blood ([1]; i.v. tail vein, 7 min): 1.21 %/g organ | Body distribution, Brain ([1]; i.v. tail vein, 7 min): 1.85 %/g organ | Body distribution, Heart ([1]; i.v. tail vein, 7 min): 2.41 %/g organ | Body distribution, Intestine ([1]; i.v. tail vein, 7 min): 2.96 %/g organ | Body distribution, Kidney ([1]; i.v. tail vein, 7 min): 5.03 %/g organ | Body distribution, Liver ([1]; i.v. tail vein, 7 min): 19.10 %/g organ | Body distribution, Lung ([1]; i.v. tail vein, 7 min): 2.87 %/g organ | Body distribution, Pancreas ([1]; i.v. tail vein, 7 min): 3.18 %/g organ | Body distribution, Spleen ([1]; i.v. tail vein, 7 min): 3.06 %/g organ | Body distribution, Stomach ([1]; i.v. tail vein, 7 min): 1.63 %/g organ | Brain/blood ratio ([1]; i.v. tail vein, 7 min): 1.67 | Pancreas/blood ratio ([1]; i.v. tail vein, 7 min): 2.66 | heart/blood ratio ([1]; i.v. tail vein, 7 min): 2.16 | Body distribution, Blood ([1]; i.v. tail vein, 15 min): 1.46 %/g organ | Body distribution, Brain ([1]; i.v. tail vein, 15 min): 0.97 %/g organ | Body distribution, Heart ([1]; i.v. tail vein, 15 min): 1.76 %/g organ | Body distribution, Intestine ([1]; i.v. tail vein, 15 min): 4.63 %/g organ | Body distribution, Kidney ([1]; i.v. tail vein, 15 min): 4.40 %/g organ | Body distribution, Liver ([1]; i.v. tail vein, 15 min): 21.90 %/g organ | Body distribution, Lung ([1]; i.v. tail vein, 15 min): 2.56 %/g organ | Body distribution, Pancreas ([1]; i.v. tail vein, 15 min): 2.19 %/g organ | Body distribution, Spleen ([1]; i.v. tail vein, 15 min): 1.98 %/g organ | Body distribution, Stomach ([1]; i.v. tail vein, 15 min): 1.50 %/g organ | Brain/blood ratio ([1]; i.v. tail vein, 15 min): 0.68 | Pancreas/blood ratio ([1]; i.v. tail vein, 15 min): 1.52 | heart/blood ratio ([1]; i.v. tail vein, 15 min): 1.21 | Body distribution, Blood ([1]; i.v. tail vein, 30 min): 3.27 %/g organ | Body distribution, Brain ([1]; i.v. tail vein, 30 min): 0.63 %/g organ | Body distribution, Heart ([1]; i.v. tail vein, 30 min): 2.01 %/g organ | Body distribution, Intestine ([1]; i.v. tail vein, 30 min): 7.68 %/g organ | Body distribution, Kidney ([1]; i.v. tail vein, 30 min): 5.06 %/g organ | Body distribution, Liver ([1]; i.v. tail vein, 30 min): 31.70 %/g organ | Body distribution, Lung ([1]; i.v. tail vein, 30 min): 3.20 %/g organ | Body distribution, Pancreas ([1]; i.v. tail vein, 30 min): 2.05 %/g organ | Body distribution, Spleen ([1]; i.v. tail vein, 30 min): 2.85 %/g organ | Body distribution, Stomach ([1]; i.v. tail vein, 30 min): 2.31 %/g organ | Brain/blood ratio ([1]; i.v. tail vein, 30 min): 0.19 | Pancreas/blood ratio ([1]; i.v. tail vein, 30 min): 0.69 | heart/blood ratio ([1]; i.v. tail vein, 30 min): 0.62 | octanol/buffer distribution ratio (n-octanol / 0.06 M phosphate buffer, pH 7.0, 37° C., 15 min): 191.3 | lipophilic property compared with ^99m Tc-KTS (octanol/buffer, pH 7): much higher than that of ^99m Tc-KTS
